Measurements: patent publication US20250381198A1 (Melt Pharmaceuticals, Inc., priority 2024, published 2025)

Legend:
[1] = test system: subjects undergoing cataract extraction with lens replacement (CELR); test: Phase 3: surgeon satisfaction (5-point Likert scale); format: in vivo, human; set-up: key to Surgeon Satisfaction Scores, Min / Surgeon Satisfaction Scores, Max: 5=very satisfied; 4=satisfied; 3=neither satisfied nor dissatisfied; 2=dissatisfied; 1=very dissatisfied; conditions: ITT analysis set
Experimental: Surgeon satisfaction with the operative experience was measured postoperatively on Day 1 using a 5-point Likert scale (5=very satisfied; 4=satisfied; 3=neither satisfied nor dissatisfied; 2=dissatisfied; 1=very dissatisfied). […] The means were compared using 2-sample t-tests and the Satterthwaite method. The proportion of satisfied responses (‘Very Satisfied’ or ‘Satisfied’, pooled) were tested using a Pearson's chi-square test; and a Fisher's exact test was used instead if any expected values were <5.

[2] = Phase 1 crossover relative bioavailability study: plasma pharmacokinetics of midazolam, 1-hydroxymidazolam, ketamine and norketamine
Experimental: PK analysis was performed using noncompartmental methods in Phoenix WinNonlin® (Version 8.1, Certara, L.P.) in conjunction with the internet-accessible implementation of the Pharsight® Knowledgebase Server™ (PKSO; Version 4.0.4, Certara, L.P). PKSO provides protected and structured storage, audit trails, and version control for study data, analyses, and related files, supporting 21 CFR Part 11 compliance. The analysis was performed in accordance with the Statistical Analysis Plan (Version 1.0, 5 Jan. 2021).
During the PK analysis, concentrations below the limit of quantitation (BLQ) up to the time of the first quantifiable concentration were treated as zero. Embedded (values between 2 quantifiable concentrations) and terminal BLQ concentrations were treated as “missing”. Calculation of the PK characteristics were based on actual elapsed times [h] (relative to time of dose).
All PK analyses were performed on the data from the PK Analysis Population. […] The ANOVA model included factors for sequence, subject within sequence, treatment, and period.

[3] = test system: subjects undergoing cataract extraction with lens replacement (CELR); test: Phase 3: intraoperative supplemental analgesia; format: in vivo, human; conditions: intention-to-treat analysis set
[4] = test system: subjects undergoing cataract extraction with lens replacement (CELR); test: Phase 3: surgery completion; format: in vivo, human
Excerpt: A plot of the Kaplan-Meier Curve for time to achieve preoperative target sedation level for the all-treated analysis set is provided in FIG. 5.

[5] = test system: subjects undergoing cataract extraction with lens replacement (CELR); test: Phase 3 MELT-300: procedural sedation responders (primary endpoint); format: in vivo, human; conditions: for Procedural sedation responder - n: number of subjects
Experimental: Eligible participants were admitted to the study unit on Day 1.
Participants received study medication 30 (+5) minutes, without food or water, before planned surgery start (defined as instillation of topical ocular anesthetic gel (3 drops of chloroprocaine hydrochloride ophthalmic gel)).
The effectiveness of MELT-300 was evaluated after study medication is administered before surgery, in the course of surgery (intraoperatively), and postoperative on Day 1 (end of surgery defined as just prior to drape removal). Efficacy assessments included assessments of sedation, need for rescue medication for sedation, need for rescue medication for pain, and the ability to complete the surgery.
Achievement of the primary endpoint (i.e., procedural sedation) was evaluated. Success for a procedural sedation responder was defined as a subject that achieved the target sedation level (RSS level 2 or 3) by the start of surgery without the need for rescue sedation medication, no requirement for intraoperative sedation medication, and who was able to complete the surgery.
Treatment differences were tested using a Pearson's chi-square test where a p-value<0.05 indicated a difference, with a Fisher's exact test being used instead if any expected values were <5. […] A supportive stratified analysis was performed using the Cochran-Mantel-Haenszel (CMH) row-mean score test to stratify by site grouping.
This sensitivity analysis utilized the last observation (collected after study drug administration) carried forward method for imputing missing preoperative RSS scores just prior to the start of surgery.

[6] = test system: subjects undergoing cataract extraction with lens replacement (CELR); test: Phase 2: treatment-emergent ocular adverse events and serious adverse events; conditions: for Cataract operation complication, % / Conjunctivitis bacterial, % / Corneal abrasion, % / Corneal oedema, % / Endophthalmitis, % / Eye disorders, % / Eye pain, % / Foreign body sensation in eyes, % / General disorders and administration site conditions, % / Infections and infestations, % / Injury, poisoning and procedural complications, % / Intraocular pressure increased, % / Investigations, % / Ocular hypertension, % / Pain, % / Paracentesis eye, % / Procedural pain, % / Subjects with Any Treatment-Emergent Ocular AEs, % / Vision blurred, %: Full Analysis Set; for Subjects who experienced a treatment-emergent ocular adverse event, study eye: overall, MELT-300, midazolam alone, ketamine alone
Experimental: The study eye (TABLE 32) non-study eye (TABLE 33), or either eye (TABLE 34) was assessed. TEAES were defined as events that started on or after the date of the study drug administration through the end of Visit 4 or early withdrawal. Subjects with one or more adverse event within a level of Medical Dictionary for Regulatory Activities (MedDRA) were counted only once in that level. […] TEAEs of special interest by system, organ class, and preferred term are provided in TABLE 35 for the full analysis set.

[7] = Treatment C: midazolam IV 3.5 mg, fasted
[8] = Non-Study Eye (as printed in Table 33)
[9] = Treatment D: ketamine IV 18 mg, fasted

Cc1ncc2n1-c1ccc(Cl)cc1C(c1ccccc1F)=NC2 [Midazolam, 8-chloro-6-(2-fluorophenyl)-1-methyl-4H-imidazo[1,5-a][1,4]benzodiazepine]
Surgeon Satisfaction Scores, Max ([1]; 5-point Likert scale): 5 | Surgeon Satisfaction Scores, Mean ± SD ([1]; 5-point Likert scale): 4.8 ± 0.56 | Surgeon Satisfaction Scores, Median ([1]; 5-point Likert scale): 5.0 | Surgeon Satisfaction Scores, Min ([1]; 5-point Likert scale): 2 | Surgeon Satisfaction Score 1 = Very Dissatisfied [1]: 0 n | Midazolam AUCExtrap, mean [2, 7]: 5.58% | Midazolam Clast, mean [2, 7]: 0.963 ng/mL | Subjects who received intraoperative supplemental analgesia [3]: 1.1% | Completed surgery without intervention due to pain or anxiety ([4]; ITT Analysis Set): 89 (100.0) n (%) | Completed the surgery ([4]; ITT Analysis Set): 89 (100.0) n (%) | Subjects who completed the surgery ([4]; ITT analysis set): 100.0% | Subjects Completed Surgery, % ([4]; Summary of Disposition, value in parentheses, percent of ITT set): (100) | Procedural sedation responder - % ([5]; All-Treated Analysis Set): 65.2% | Procedural sedation responder - n ([5]; All-Treated Analysis Set): 58 | Procedural sedation responder - % ([5]; ITT Analysis Set): 65.2% | Procedural sedation responder - n ([5]; ITT Analysis Set): 58 | Procedural sedation responders (achieved target sedation) ([5]; ITT analysis set, MELT-300 or 3 mg midazolam sublingual tablet before CELR): 65.2% | Procedural sedation responder - % ([5]; PP Analysis Set): 65.2% | Procedural sedation responder - n ([5]; PP Analysis Set): 58 | Cataract operation complication, % ([6]; Either Eye): (0) % | Conjunctivitis bacterial, % ([6]; Either Eye): (0) % | Corneal abrasion, % ([6]; Either Eye): (0) % | Corneal oedema, % ([6]; Either Eye): (0) % | Endophthalmitis, % ([6]; Either Eye): (0) % | Eye disorders, % ([6]; Either Eye): (5.7) % | Eye pain, % ([6]; Either Eye): (3.4) % | Foreign body sensation in eyes, % ([6]; Either Eye): (0) % | General disorders and administration site conditions, % ([6]; Either Eye): (0) % | Infections and infestations, % ([6]; Either Eye): (0) % | Injury, poisoning and procedural complications, % ([6]; Either Eye): (1.1) % | Intraocular pressure increased, % ([6]; Either Eye): (2.3) % | Investigations, % ([6]; Either Eye): (2.3) % | Ocular hypertension, % ([6]; Either Eye): (1.1) % | Pain, % ([6]; Either Eye): (0) % | Paracentesis eye, % ([6]; Either Eye): (0) % | Procedural pain, % ([6]; Either Eye): (1.1) % | Subjects with Any Treatment-Emergent Ocular AEs, % ([6]; Either Eye): (9.2) % | Vision blurred, % ([6]; Either Eye): (1.1) % | Paracentesis eye, % [6, 8]: (0) % | Conjunctivitis bacterial, % ([6]; Non-Study Eye): (0) % | Eye disorders, % ([6]; Non-Study Eye): (1.1) % | Eye pain, % ([6]; Non-Study Eye): (0) % | Infections and infestations, % ([6]; Non-Study Eye): (0) % | Subjects with Any Treatment-Emergent Ocular AEs, % ([6]; Non-Study Eye): (1.1) % | Vision blurred, % ([6]; Non-Study Eye): (1.1) % | Cataract operation complication, % ([6]; Study Eye): (0) % | Corneal abrasion, % ([6]; Study Eye): (0) % | Corneal oedema, % ([6]; Study Eye): (0) % | Endophthalmitis, % ([6]; Study Eye): (0) % | Eye disorders, % ([6]; Study Eye): (4.6) % | Eye pain, % ([6]; Study Eye): (3.4) % | Foreign body sensation in eyes, % ([6]; Study Eye): (0) % | General disorders and administration site conditions, % ([6]; Study Eye): (0) % | Infections and infestations, % ([6]; Study Eye): (0) % | Injury, poisoning and procedural complications, % ([6]; Study Eye): (1.1) % | Intraocular pressure increased, % ([6]; Study Eye): (2.3) % | Investigations, % ([6]; Study Eye): (2.3) % | Ocular hypertension, % ([6]; Study Eye): (1.1) % | Pain, % ([6]; Study Eye): (0) % | Procedural pain, % ([6]; Study Eye): (1.1) % | Subjects with Any Treatment-Emergent Ocular AEs, % ([6]; Study Eye): (8.0) % | Subjects who experienced a treatment-emergent ocular adverse event, study eye [6]: 8.0%

CNC1(c2ccccc2Cl)CCCCC1=O (centres unmarked) [Ketamine, 2-(2-chlorophenyl)-2-(methylamino)cyclohexanone]
Ketamine AUCExtrap, mean [2, 9]: 9.64% | Ketamine Clast, mean [2, 9]: 1.99 ng/mL | Ketamine Tlast, mean [2, 9]: 23.7 h | Ketamine Vz, mean [2, 9]: 867 L | clearance ([2]; human, plasma, iv, 18 mg): 998 mL/min | Cataract operation complication, % ([6]; Either Eye): (0) % | Conjunctivitis bacterial, % ([6]; Either Eye): (1.2) % | Corneal abrasion, % ([6]; Either Eye): (0) % | Corneal oedema, % ([6]; Either Eye): (1.2) % | Endophthalmitis, % ([6]; Either Eye): (1.2) % | Eye disorders, % ([6]; Either Eye): (5.9) % | Eye pain, % ([6]; Either Eye): (3.5) % | Foreign body sensation in eyes, % ([6]; Either Eye): (0) % | General disorders and administration site conditions, % ([6]; Either Eye): (0) % | Infections and infestations, % ([6]; Either Eye): (2.4) % | Injury, poisoning and procedural complications, % ([6]; Either Eye): (0) % | Intraocular pressure increased, % ([6]; Either Eye): (1.2) % | Investigations, % ([6]; Either Eye): (1.2) % | Ocular hypertension, % ([6]; Either Eye): (1.2) % | Pain, % ([6]; Either Eye): (0) % | Paracentesis eye, % ([6]; Either Eye): (0) % | Procedural pain, % ([6]; Either Eye): (0) % | Subjects with Any Treatment-Emergent Ocular AEs, % ([6]; Either Eye): (8.2) % | Vision blurred, % ([6]; Either Eye): (0) % | Paracentesis eye, % [6, 8]: (0) % | Conjunctivitis bacterial, % ([6]; Non-Study Eye): (1.2) % | Eye disorders, % ([6]; Non-Study Eye): (0) % | Eye pain, % ([6]; Non-Study Eye): (0) % | Infections and infestations, % ([6]; Non-Study Eye): (1.2) % | Subjects with Any Treatment-Emergent Ocular AEs, % ([6]; Non-Study Eye): (1.2) % | Vision blurred, % ([6]; Non-Study Eye): (0) % | Cataract operation complication, % ([6]; Study Eye): (0) % | Corneal abrasion, % ([6]; Study Eye): (0) % | Corneal oedema, % ([6]; Study Eye): (1.2) % | Endophthalmitis, % ([6]; Study Eye): (1.2) % | Eye disorders, % ([6]; Study Eye): (5.9) % | Eye pain, % ([6]; Study Eye): (3.5) % | Foreign body sensation in eyes, % ([6]; Study Eye): (0) % | General disorders and administration site conditions, % ([6]; Study Eye): (0) % | Infections and infestations, % ([6]; Study Eye): (1.2) % | Injury, poisoning and procedural complications, % ([6]; Study Eye): (0) % | Intraocular pressure increased, % ([6]; Study Eye): (1.2) % | Investigations, % ([6]; Study Eye): (1.2) % | Ocular hypertension, % ([6]; Study Eye): (1.2) % | Pain, % ([6]; Study Eye): (0) % | Procedural pain, % ([6]; Study Eye): (0) % | Subjects with Any Treatment-Emergent Ocular AEs, % ([6]; Study Eye): (7.1) % | Subjects who experienced a treatment-emergent ocular adverse event, study eye [6]: 7.1%
